Where a SMILES comes first, the peptide text is derived from it. Bridges are numbered along the chain shown (N, C = ends).

The source of these data is patent US20160158317A1, “Antimicrobial Peptide Variants and Polynucleotides Encoding Same” (Adenium Biotech A/S, priority 2010, published 2016).

The data set can be described thus: Determination of the protein binding (90% serum, 30 kDa filter, HPLC). The format is in vitro ADME. As to conditions: serum. The method, then: Protein binding assays were performed as follows. The purified peptides were mixed with 90% serum and centrifuged through a 30 kDa filter. The ultra-filtrate and the non filtrated serum samples were quantified by HPLC measurements and the protein binding was subsequently calculated.
Broadly, the fraction unbound is the share of the substance not bound to proteins or other matrix. For the compound `CC(C)[C@@H]1NC(=O)[C@H](CCCNC(=N)N)NC(=O)[C@H](C)NC(=O)CNC(=O)[C@H](CC(N)=O)NC(=O)[C@H](CCCNC(=N)N)NC(=O)[C@H](CCCCN)NC(=O)[C@H](C(C)C)NC(=O)[C@@H]2CSSC[C@H](NC1=O)C(=O)N[C@@H](Cc1ccc(O)cc1)C(=O)N[C@@H](CCCNC(=N)N)C(=O)N[C@@H](CCCNC(=N)N)C(=O)N[C@H](C(=O)N[C@@H](CC(N)=O)C(=O)O)CSSC[C@H](NC(=O)[C@H](Cc1ccccc1)NC(=O)CN)C(=O)N[C@@H](C)C(=O)N[C@@H](Cc1c[nH]cn1)C(=O)N[C@@H](C(C)C)C(=O)N2` [compound 362] (H-GFCAHVCVKRNGARVCYRRCN-OH; disulfide 3-20, 7-16 (inferred); N-terminus and C-terminus assumed), the fraction unbound was 0.24.

Turning to `CC(C)[C@@H]1NC(=O)CNC(=O)[C@H](CC(N)=O)NC(=O)[C@H](CCCNC(=N)N)NC(=O)[C@H](Cc2ccc(O)cc2)NC(=O)[C@H](C(C)C)NC(=O)[C@@H]2CSSC[C@H](NC(=O)[C@H](CO)NC(=O)[C@H](CCCNC(=N)N)NC1=O)C(=O)N[C@@H](Cc1ccc(O)cc1)C(=O)N[C@@H](CCCNC(=N)N)C(=O)N[C@@H](CCCNC(=N)N)C(=O)N[C@H](C(=O)N[C@@H](CC(N)=O)C(=O)O)CSSC[C@H](NC(=O)[C@H](Cc1ccccc1)NC(=O)CN)C(=O)N[C@@H](Cc1ccc(O)cc1)C(=O)N[C@@H](CCCCN)C(=O)N[C@@H](C(C)C)C(=O)N2` [compound 206] (H-GFCYKVCVYRNGVRSCYRRCN-OH; disulfide 3-20, 7-16 (inferred); N-terminus and C-terminus assumed), the fraction unbound is 0.14.

The compound `CC(C)[C@@H]1NC(=O)CNC(=O)[C@H](CC(N)=O)NC(=O)[C@H](CCCNC(=N)N)NC(=O)[C@H](CCCCN)NC(=O)[C@H](C(C)C)NC(=O)[C@@H]2CSSC[C@H](NC(=O)[C@H](C(C)C)NC(=O)[C@H](CCCNC(=N)N)NC1=O)C(=O)N[C@@H](Cc1c[nH]cn1)C(=O)N[C@@H](CCCNC(=N)N)C(=O)N[C@@H](CCCNC(=N)N)C(=O)N[C@H](C(=O)N[C@@H](CC(N)=O)C(=O)O)CSSC[C@H](NC(=O)[C@H](Cc1ccccc1)NC(=O)CN)C(=O)N[C@@H](Cc1ccccc1)C(=O)N[C@@H](Cc1ccc(O)cc1)C(=O)N[C@@H](C(C)C)C(=O)N2` [compound 137] (H-GFCFYVCVKRNGVRVCHRRCN-OH; disulfide 3-20, 7-16 (inferred); N-terminus and C-terminus assumed) had a fraction unbound of 0.14.

Turning to `CC(C)[C@@H]1NC(=O)[C@@H]2CSSC[C@H](NC(=O)[C@H](C)NC(=O)[C@H](CCCNC(=N)N)NC(=O)[C@H](CCCCN)NC(=O)CNC(=O)[C@H](CC(N)=O)NC(=O)[C@H](CCCNC(=N)N)NC(=O)[C@H](Cc3ccc(O)cc3)NC1=O)C(=O)N[C@@H](Cc1ccc(O)cc1)C(=O)N[C@@H](CCCNC(=N)N)C(=O)N[C@@H](CCCNC(=N)N)C(=O)N[C@H](C(=O)N[C@@H](CC(N)=O)C(=O)O)CSSC[C@H](NC(=O)[C@H](Cc1ccccc1)NC(=O)CN)C(=O)NCC(=O)N[C@@H](CCCNC(=N)N)C(=O)N[C@@H](C(C)C)C(=O)N2` [compound 386] (H-GFCGRVCVYRNGKRACYRRCN-OH; disulfide 3-20, 7-16 (inferred); N-terminus and C-terminus assumed), the fraction unbound was 0.19.

Consider `CC(C)[C@@H]1NC(=O)CNC(=O)[C@H](CC(N)=O)NC(=O)[C@H](CCCNC(=N)N)NC(=O)[C@H](CCCNC(=N)N)NC(=O)[C@H](C(C)C)NC(=O)[C@@H]2CSSC[C@H](NC(=O)[C@H](C(C)C)NC(=O)[C@H](CCCNC(=N)N)NC1=O)C(=O)N[C@@H](Cc1ccc(O)cc1)C(=O)N[C@@H](CCCNC(=N)N)C(=O)N[C@@H](CCCNC(=N)N)C(=O)N[C@H](C(=O)N[C@@H](CC(N)=O)C(=O)O)CSSC[C@H](NC(=O)[C@H](Cc1ccccc1)NC(=O)CN)C(=O)N[C@@H](Cc1ccccc1)C(=O)N[C@@H](CCCNC(=N)N)C(=O)N[C@@H](CO)C(=O)N2` [compound 377] (H-GFCFRSCVRRNGVRVCYRRCN-OH; disulfide 3-20, 7-16 (inferred); N-terminus and C-terminus assumed), for which the fraction unbound is 0.35.

In turn, `CC(C)C[C@@H]1NC(=O)[C@H](CCCNC(=N)N)NC(=O)[C@H](C(C)C)NC(=O)CNC(=O)[C@H](CC(N)=O)NC(=O)[C@H](CCCNC(=N)N)NC(=O)[C@H](Cc2ccc(O)cc2)NC(=O)[C@H](C(C)C)NC(=O)[C@@H]2CSSC[C@H](NC1=O)C(=O)N[C@@H](Cc1c[nH]cn1)C(=O)N[C@@H](CCCNC(=N)N)C(=O)N[C@@H](CCCNC(=N)N)C(=O)N[C@H](C(=O)N[C@@H](CC(N)=O)C(=O)O)CSSC[C@H](NC(=O)[C@H](Cc1ccccc1)NC(=O)CN)C(=O)N[C@@H](Cc1c[nH]c3ccccc13)C(=O)N[C@@H](CC(N)=O)C(=O)N[C@@H](C(C)C)C(=O)N2` [compound 249] (H-GFCWNVCVYRNGVRLCHRRCN-OH; disulfide 3-20, 7-16 (inferred); N-terminus and C-terminus assumed) showed a fraction unbound of 0.17.

On to `CC(C)[C@@H]1NC(=O)CNC(=O)[C@H](CC(N)=O)NC(=O)[C@H](CCCNC(=N)N)NC(=O)[C@H](Cc2ccc(O)cc2)NC(=O)[C@H](C(C)C)NC(=O)[C@@H]2CSSC[C@H](NC(=O)[C@H](C(C)C)NC(=O)[C@H](CCCNC(=N)N)NC1=O)C(=O)N[C@@H](Cc1ccc(O)cc1)C(=O)N[C@@H](CCCNC(=N)N)C(=O)N[C@@H](CCCNC(=N)N)C(=O)N[C@H](C(=O)N[C@@H](CC(N)=O)C(=O)O)CSSC[C@H](NC(=O)[C@H](Cc1ccccc1)NC(=O)CN)C(=O)N[C@@H](Cc1c[nH]c3ccccc13)C(=O)N[C@@H](CC(N)=O)C(=O)N[C@@H](C(C)C)C(=O)N2` [compound 11] (H-GFCWNVCVYRNGVRVCYRRCN-OH; disulfide 3-20, 7-16 (inferred); N-terminus and C-terminus assumed), for which the fraction unbound was 0.27.

Take `CC(C)[C@@H]1NC(=O)CNC(=O)[C@H](CC(N)=O)NC(=O)[C@H](CCCNC(=N)N)NC(=O)[C@H](Cc2ccc(O)cc2)NC(=O)[C@H](C(C)C)NC(=O)[C@@H]2CSSC[C@H](NC(=O)[C@H](C(C)C)NC(=O)[C@H](CCCNC(=N)N)NC1=O)C(=O)N[C@@H](Cc1ccc(O)cc1)C(=O)N[C@@H](CCCNC(=N)N)C(=O)N[C@@H](CCCNC(=N)N)C(=O)N[C@H](C(=O)N[C@@H](CO)C(=O)O)CSSC[C@H](NC(=O)[C@H](Cc1ccccc1)NC(=O)CN)C(=O)NCC(=O)N[C@@H](Cc1c[nH]cn1)C(=O)N[C@@H](C(C)C)C(=O)N2` [compound 144] (H-GFCGHVCVYRNGVRVCYRRCS-OH; disulfide 3-20, 7-16 (inferred); N-terminus and C-terminus assumed): the fraction unbound is 0.32.

`CC(C)[C@@H]1NC(=O)CNC(=O)[C@H](CC(N)=O)NC(=O)[C@H](CCCNC(=N)N)NC(=O)[C@H](Cc2ccc(O)cc2)NC(=O)[C@H](C(C)C)NC(=O)[C@@H]2CSSC[C@H](NC(=O)[C@H](CO)NC(=O)[C@H](CCCNC(=N)N)NC1=O)C(=O)N[C@@H](Cc1ccc(O)cc1)C(=O)N[C@@H](CCCNC(=N)N)C(=O)N[C@@H](CCCNC(=N)N)C(=O)N[C@H](C(=O)N[C@@H](CC(N)=O)C(=O)O)CSSC[C@H](NC(=O)[C@H](Cc1ccccc1)NC(=O)CN)C(=O)N[C@@H](Cc1c[nH]c3ccccc13)C(=O)N[C@@H](Cc1ccc(O)cc1)C(=O)N[C@@H](C(C)C)C(=O)N2` [compound 44] (H-GFCWYVCVYRNGVRSCYRRCN-OH; disulfide 3-20, 7-16) showed a fraction unbound of 0.15.

For `CC(C)[C@@H]1NC(=O)CNC(=O)[C@H](CC(N)=O)NC(=O)[C@H](CCCNC(=N)N)NC(=O)[C@H](CCCCN)NC(=O)[C@H](C(C)C)NC(=O)[C@@H]2CSSC[C@H](NC(=O)[C@H](CO)NC(=O)[C@H](CCCNC(=N)N)NC1=O)C(=O)N[C@@H](Cc1ccc(O)cc1)C(=O)N[C@@H](CCCNC(=N)N)C(=O)N[C@@H](CCCNC(=N)N)C(=O)N[C@H](C(=O)N[C@@H](CC(N)=O)C(=O)O)CSSC[C@H](NC(=O)[C@H](Cc1ccccc1)NC(=O)CN)C(=O)N[C@@H](Cc1c[nH]c3ccccc13)C(=O)N[C@@H](Cc1ccc(O)cc1)C(=O)N[C@@H](C(C)C)C(=O)N2` [compound 87] (H-GFCWYVCVKRNGVRSCYRRCN-OH; disulfide 3-20, 7-16 (inferred); N-terminus and C-terminus assumed), the fraction unbound is 0.07.

`CC(C)[C@@H]1NC(=O)CNC(=O)[C@H](CC(N)=O)NC(=O)[C@H](CCCNC(=N)N)NC(=O)[C@H](CCCNC(=N)N)NC(=O)[C@H](C(C)C)NC(=O)[C@@H]2CSSC[C@H](NC(=O)[C@H](C(C)C)NC(=O)[C@H](CCCNC(=N)N)NC1=O)C(=O)N[C@@H](Cc1ccc(O)cc1)C(=O)N[C@@H](CCCNC(=N)N)C(=O)N[C@@H](CCCNC(=N)N)C(=O)N[C@H](C(=O)N[C@@H](CC(N)=O)C(=O)O)CSSC[C@H](NC(=O)[C@H](Cc1ccccc1)NC(=O)CN)C(=O)NCC(=O)N[C@@H](CCCNC(=N)N)C(=O)N[C@@H](C(C)C)C(=O)N2` [compound 172] (H-GFCGRVCVRRNGVRVCYRRCN-OH; disulfide 3-20, 7-16 (inferred); N-terminus and C-terminus assumed) showed a fraction unbound of 0.12.

`CC(C)[C@@H]1NC(=O)CNC(=O)[C@H](CC(N)=O)NC(=O)[C@H](CCCNC(=N)N)NC(=O)[C@H](Cc2ccc(O)cc2)NC(=O)[C@H](C(C)C)NC(=O)[C@@H]2CSSC[C@H](NC(=O)[C@H](C(C)C)NC(=O)[C@H](CCCNC(=N)N)NC1=O)C(=O)N[C@@H](Cc1ccc(O)cc1)C(=O)N[C@@H](CCCNC(=N)N)C(=O)N[C@@H](CCCNC(=N)N)C(=O)N[C@H](C(=O)N[C@H](C(=O)O)[C@@H](C)O)CSSC[C@H](NC(=O)[C@H](Cc1ccccc1)NC(=O)CN)C(=O)N[C@@H](Cc1c[nH]c3ccccc13)C(=O)N[C@@H](Cc1ccc(O)cc1)C(=O)N[C@@H](C(C)C)C(=O)N2` [compound 54] (H-GFCWYVCVYRNGVRVCYRRCT-OH; disulfide 3-20, 7-16 (inferred); N-terminus and C-terminus assumed) came in with a fraction unbound of 0.01.
